ChEMBL document CHEMBL1156802, “Design and synthesis of novel diaminoquinazolines with in vivo efficacy for beta-catenin/T-cell transcriptional factor 4 pathway inhibition” (J Med Chem, 2010)

Test: Metabolic stability in rat liver microsomes assessed as half life
Assay type: ADME, Microsome

Row | SMILES | half-life
1 | CNc1nc(NCc2ccc(NC(=O)c3ccc(Cl)nc3)cc2)c2c(C)cccc2n1 | 2 min
2 | CNc1nc(NCc2ccc(NC(=O)c3ccc(Cl)cc3)cc2)c2cccc(C)c2n1 | 11 min
3 | CNc1nc(NCc2ccc(NC(=O)c3ccc(Cl)cc3)cc2)c2ccccc2n1 | 30 min
4 | CNc1nc(NCc2ccc(NC(=O)c3ccc(Cl)nc3)cc2)c2ccc(C)cc2n1 | 8 min
5 | CNc1nc(NCc2ccc(NC(=O)c3ccc(F)cc3)cc2)c2cccc(C)c2n1 | 10 min
6 | CNc1nc(NCc2ccc(NC(=O)c3ccc(C)cc3)cc2)c2ccccc2n1 | 16 min
7 | CNc1nc(NCc2ccc(NC(=O)c3ccc(F)cc3)cc2)c2cc(C)ccc2n1 | 6 min
8 | Cc1ccc2c(NCc3ccc(NC(=O)c4ccc(F)cc4)cc3)nc(N3CCC3)nc2c1 | 7 min
9 | Cc1ccc2c(NCc3ccc(NC(=O)c4ccc(F)cc4)cc3)nc(N3CCN[C@H](C)C3)nc2c1 | 4 min
10 | CNc1nc(NCc2ccc(NC(=O)c3ccc(Cl)cc3)cc2)c2c(C)cccc2n1 | 12 min
11 | Cc1ccc2c(NCc3ccc(NC(=O)c4ccc(F)cc4)cc3)nc(N3CCN(C)CC3)nc2c1 | 3 min
12 | CNc1nc(NCc2ccc(NC(=O)c3ccc(Cl)cc3)cc2)c2cc(C)ccc2n1 | 6 min
13 | CN(C)c1nc(NCc2ccc(NC(=O)c3ccc(F)cc3)cc2)c2ccc(CO)cc2n1 | 22 min
14 | CN(C)Cc1ccc2c(NCc3ccc(NC(=O)c4ccc(F)cc4)cc3)nc(N(C)C)nc2c1 | 3 min
15 | CNc1nc(NCc2ccc(NC(=O)c3ccc(Cl)nc3)cc2)c2cc(C)ccc2n1 | 13 min
16 | CNc1nc(NCc2ccc(NC(=O)c3ccc(Cl)nc3)cc2)c2ccccc2n1 | 17 min
17 | Cc1ccc2c(NCc3ccc(NC(=O)c4ccc(F)cc4)cc3)nc(N3CCCC3)nc2c1 | 2 min
18 | CNc1nc(NCc2ccc(NC(=O)c3ccc(C(F)(F)F)cc3)cc2)c2ccccc2n1 | 30 min

Results, then the compound that gave them:

Row | half-life | SMILES
19 | 6 min | Cc1ccc2c(NCc3ccc(NC(=O)c4ccc(F)cc4)cc3)nc(N3CCOCC3)nc2c1
20 | 18 min | CNc1nc(NCc2ccc(NC(=O)c3ccc(Cl)cc3)cc2)c2ccc(C)cc2n1
21 | 10 min | CNc1nc(NCc2ccc(NC(=O)c3ccc(C#N)cc3)cc2)c2ccccc2n1
22 | 6 min | CCCNc1nc(NCc2ccc(NC(=O)c3ccc(F)cc3)cc2)c2ccc(C)cc2n1
23 | 21 min | CNc1nc(NCc2ccc(NC(=O)c3ccc(F)cc3)cc2)c2ccccc2n1
24 | 6 min | CCc1ccc2c(NCc3ccc(NC(=O)c4ccc(F)cc4)cc3)nc(N(C)C)nc2c1
25 | > 30 min | CNc1nc(NCc2ccc(NC(=O)c3ccc(F)cc3)cc2)c2ccc(C)cc2n1
26 | 16 min | CNc1nc(NCc2ccc(NC(=O)c3ccc(-c4ccccc4)cc3)cc2)c2ccccc2n1
27 | 15 min | CNc1nc(NCc2ccc(NC(=O)c3cccc(Cl)c3)cc2)c2ccccc2n1
28 | 3 min | Cc1ccc2c(NCc3ccc(NC(=O)c4ccc(F)cc4)cc3)nc(N3CCCCC3)nc2c1
29 | 3 min | CN(C)c1nc(NCc2ccc(NC(=O)c3ccc(F)cc3)cc2)c2ccc(C=O)cc2n1
30 | 22 min | CNc1nc(NCc2ccc(NC(=O)c3ccc(Cl)nc3)cc2)c2cccc(C)c2n1
31 | 11 min | CN(C)c1nc(NCc2ccc(NC(=O)c3ccc(F)cc3)cc2)c2ccc(C#N)cc2n1
32 | 6 min | C=Cc1ccc2c(NCc3ccc(NC(=O)c4ccc(F)cc4)cc3)nc(N(C)C)nc2c1
33 | 6 min | CC(O)c1ccc2c(NCc3ccc(NC(=O)c4ccc(F)cc4)cc3)nc(N(C)C)nc2c1 (racemic)
34 | 12 min | Cc1ccc2c(NCc3ccc(NC(=O)c4ccc(F)cc4)cc3)nc(N(C)C)nc2c1
35 | 3 min | Cc1ccc2c(NCc3ccc(NC(=O)c4ccc(F)cc4)cc3)nc(N3CCNC(C)(C)C3)nc2c1
36 | 15 min | CNc1nc(NCc2ccc(NC(=O)c3ccc(F)cc3)cc2)c2c(C)cccc2n1
37 | 2 min | CC(=O)c1ccc2c(NCc3ccc(NC(=O)c4ccc(F)cc4)cc3)nc(N(C)C)nc2c1
38 | 5 min | Cc1ccc2c(NCc3ccc(NC(=O)c4ccc(F)cc4)cc3)nc(N3CCNCC3)nc2c1
